In ChEMBL document CHEMBL4190322, “Structure-based development of novel triazoles and related thiazolotriazoles as anticancer agents and Cdc25A/B phosphatase inhibitors. Synthesis, in vitro biological evaluation, molecular docking and in silico ADME-T studies” (Eur J Med Chem, 2017):
Active and inactive are the calls of the source. No cut-off for these calls is given here.

Tests used:
Type in all cases: functional
HT-29 = test: Growth inhibition of human HT-29 cells at 10 uM after 48 hrs by SRB assay relative to control
OVCAR-8 = test: Growth inhibition of human OVCAR8 cells at 10 uM after 48 hrs by SRB assay relative to control
CCRF-CEM = test: Growth inhibition of human CCRF-CEM cells at 10 uM after 48 hrs by SRB assay relative to control; settings: read-out: GI
K562 = test: Growth inhibition of human K562 cells at 10 uM after 48 hrs by SRB assay relative to control; settings: K562, 48 h, read-out: GI
SR = test: Growth inhibition of human SR cells at 10 uM after 48 hrs by SRB assay relative to control; settings: read-out: GI
MOLT-4 = test: Growth inhibition of human MOLT4 cells at 10 uM after 48 hrs by SRB assay relative to control; settings: MOLT-4, 48 h, read-out: GI
RPMI-8226 = test: Growth inhibition of human RPMI8226 cells at 10 uM after 48 hrs by SRB assay relative to control
HL-60 = test: Growth inhibition of human HL60 cells at 10 uM after 48 hrs by SRB assay relative to control
A549 = test: Growth inhibition of human A549 cells at 10 uM after 48 hrs by SRB assay relative to control
HOP-62 = test: Growth inhibition of human HOP62 cells at 10 uM after 48 hrs by SRB assay relative to control; settings: HOP-62, 48 h, read-out: GI
HOP-92 = test: Growth inhibition of human HOP92 cells at 10 uM after 48 hrs by SRB assay relative to control; settings: HOP-92, 48 h, read-out: GI
NCI-H226 = test: Growth inhibition of human NCI-H226 cells at 10 uM after 48 hrs by SRB assay relative to control
NCI-H23 = test: Growth inhibition of human NCI-H23 cells at 10 uM after 48 hrs by SRB assay relative to control; settings: NCI-H23, 48 h, read-out: GI
NCI-H322M = test: Growth inhibition of human NCI-H322M cells at 10 uM after 48 hrs by SRB assay relative to control
NCI-H522 = test: Growth inhibition of human NCI-H522 cells at 10 uM after 48 hrs by SRB assay relative to control; settings: NCI-H522, 48 h, read-out: GI
HCT-116 = test: Growth inhibition of human HCT116 cells at 10 uM after 48 hrs by SRB assay relative to control
KM12 = test: Growth inhibition of human KM12 cells at 10 uM after 48 hrs by SRB assay relative to control
SF-268 = test: Growth inhibition of human SF268 cells at 10 uM after 48 hrs by SRB assay relative to control
SNB-19 = test: Growth inhibition of human SNB19 cells at 10 uM after 48 hrs by SRB assay relative to control
SNB-75 = test: Growth inhibition of human SNB75 cells at 10 uM after 48 hrs by SRB assay relative to control
U-251 = test: Growth inhibition of human U251 cells at 10 uM after 48 hrs by SRB assay relative to control; settings: U-251, 48 h, read-out: GI
LOX IMVI = test: Growth inhibition of human LOXIMVI cells at 10 uM after 48 hrs by SRB assay relative to control; settings: read-out: GI
SK-MEL-2 = test: Growth inhibition of human SK-MEL-2 cells at 10 uM after 48 hrs by SRB assay relative to control; settings: SK-MEL-2, 48 h, read-out: GI
SK-MEL-5 = test: Growth inhibition of human SK-MEL-5 cells at 10 uM after 48 hrs by SRB assay relative to control; settings: SK-MEL-5, 48 h, read-out: GI
UACC-257 = test: Growth inhibition of human UACC257 cells at 10 uM after 48 hrs by SRB assay relative to control
UACC-62 = test: Growth inhibition of human UACC62 cells at 10 uM after 48 hrs by SRB assay relative to control; settings: UACC-62, 48 h, read-out: GI
OVCAR-3 = test: Growth inhibition of human OVCAR3 cells at 10 uM after 48 hrs by SRB assay relative to control
OVCAR-4 = test: Growth inhibition of human OVCAR4 cells at 10 uM after 48 hrs by SRB assay relative to control
NCI/ADR-RES = test: Growth inhibition of human NCI/ADR-RES cells at 10 uM after 48 hrs by SRB assay relative to control; settings: read-out: GI
SK-OV-3 = test: Growth inhibition of human SKOV3 cells at 10 uM after 48 hrs by SRB assay relative to control; settings: SK-OV-3, 48 h, read-out: GI
786-0 = test: Growth inhibition of human 786-0 cells at 10 uM after 48 hrs by SRB assay relative to control
A498 = test: Growth inhibition of human A498 cells at 10 uM after 48 hrs by SRB assay relative to control
CAKI-1 = test: Growth inhibition of human Caki1 cells at 10 uM after 48 hrs by SRB assay relative to control
RXF 393 = test: Growth inhibition of human RXF393 cells at 10 uM after 48 hrs by SRB assay relative to control
UO-31 = test: Growth inhibition of human UO31 cells at 10 uM after 48 hrs by SRB assay relative to control; settings: UO-31, 48 h, read-out: GI
PC-3 = test: Growth inhibition of human PC3 cells at 10 uM after 48 hrs by SRB assay relative to control; settings: PC-3, 48 h, read-out: GI
MCF7 = test: Growth inhibition of human MCF7 cells at 10 uM after 48 hrs by SRB assay relative to control
Hs-578T = test: Growth inhibition of human Hs 578T cells at 10 uM after 48 hrs by SRB assay relative to control; settings: read-out: GI
MDA-MB-468 = test: Growth inhibition of human MDA-MB-468 cells at 10 uM after 48 hrs by SRB assay relative to control
Malme-3M = test: Growth inhibition of human MALME-3M cells at 10 uM after 48 hrs by SRB assay relative to control

SMILES	growth inhibition (GI) (HT-29)	growth inhibition (GI) (OVCAR-8)	inhibition of growth at 10 µM (CCRF-CEM) [%]	inhibition of growth at 10 µM (K562) [%]	inhibition of growth at 10 µM (SR) [%]	inhibition of growth at 10 µM (MOLT-4) [%]	growth inhibition (GI) (HL-60)	inhibition of growth at 10 µM (HOP-62) [%]	inhibition of growth at 10 µM (HOP-92) [%]	inhibition of growth at 10 µM (NCI-H23) [%]	inhibition of growth at 10 µM (NCI-H522) [%]	growth inhibition (GI) (SNB-19)	inhibition of growth at 10 µM (U-251) [%]	inhibition of growth at 10 µM (LOX IMVI) [%]	inhibition of growth at 10 µM (SK-MEL-2) [%]	inhibition of growth at 10 µM (SK-MEL-5) [%]	growth inhibition (GI) (UACC-257)	inhibition of growth at 10 µM (UACC-62) [%]	inhibition of growth at 10 µM (NCI/ADR-RES) [%]	inhibition of growth at 10 µM (SK-OV-3) [%]	other results
COc1ccc(Cc2nnc(SCC(=O)Nc3ccc(C)cc3)n2-c2ccccc2)cc1	inactive	inactive	8.16	9.31	17	14.9	inactive	6.8	8.7	5.6	19	inactive	1.62	2.2	17.3	1.4	inactive	2.9	6.11	7.38	growth inhibition (GI) (RPMI-8226): inactive; growth inhibition (GI) (A549): inactive; growth inhibition (GI) (NCI-H226): inactive; growth inhibition (GI) (NCI-H322M): inactive; growth inhibition (GI) (HCT-116): inactive; growth inhibition (GI) (KM12): inactive; growth inhibition (GI) (SF-268): inactive; growth inhibition (GI) (SNB-75): inactive; growth inhibition (GI) (OVCAR-3): inactive; growth inhibition (GI) (OVCAR-4): inactive; growth inhibition (GI) (786-0): inactive; growth inhibition (GI) (A498): inactive; growth inhibition (GI) (CAKI-1): inactive; growth inhibition (GI) (RXF 393): inactive; inhibition of growth at 10 µM (UO-31): 11.4%; inhibition of growth at 10 µM (PC-3): 16.3%; growth inhibition (GI) (MCF7): inactive; inhibition of growth at 10 µM (Hs-578T): 1.15%; growth inhibition (GI) (MDA-MB-468): inactive; inhibition of growth at 10 µM (Malme-3M; read-out: GI): 1.56%
COc1ccc(Cc2nnc3sc(SCC(=O)c4ccc(Cl)cc4)nn23)cc1	inactive	inactive	12.2	10	13.2	7.83	inactive	7.5	32	10.7	17.7	inactive	8.78	9	10	2.05	inactive	1.72	5.12	11.2	inhibition of growth at 10 µM (RPMI-8226; RPMI-8226, 48 h, read-out: GI): 8.67%; inhibition of growth at 10 µM (A549; A549, 48 h, read-out: GI): 1.3%; inhibition of growth at 10 µM (NCI-H226; NCI-H226, 48 h, read-out: GI): 2%; inhibition of growth at 10 µM (NCI-H322M; read-out: GI): 6.27%; inhibition of growth at 10 µM (HCT-116; HCT-116, 48 h, read-out: GI): 4%; inhibition of growth at 10 µM (KM12; KM12, 48 h, read-out: GI): 5.4%; inhibition of growth at 10 µM (SF-268; SF-268, 48 h, read-out: GI): 5%; inhibition of growth at 10 µM (SNB-75; SNB-75, 48 h, read-out: GI): 21.8%; inhibition of growth at 10 µM (OVCAR-3; OVCAR-3, 48 h, read-out: GI): 3.88%; inhibition of growth at 10 µM (OVCAR-4; OVCAR-4, 48 h, read-out: GI): 2.26%; growth inhibition (GI) (786-0): inactive; inhibition of growth at 10 µM (A498; A498, 48 h, read-out: GI): 35.4%; inhibition of growth at 10 µM (CAKI-1; CAKI-1, 48 h, read-out: GI): 17.5%; growth inhibition (GI) (RXF 393): inactive; inhibition of growth at 10 µM (UO-31): 22.3%; inhibition of growth at 10 µM (PC-3): 25.8%; inhibition of growth at 10 µM (MCF7; MCF7, 48 h, read-out: GI): 6.24%; inhibition of growth at 10 µM (Hs-578T): 2.07%; growth inhibition (GI) (MDA-MB-468): inactive; growth inhibition (GI) (Malme-3M): inactive
